Experimental data from article PMC3723537, “Structural Basis for Native Agonist and Synthetic Inhibitor Recognition by the Pseudomonas aeruginosa Quorum Sensing Regulator PqsR (MvfR)” (PLoS Pathogens, 2013).
Read-outs that look alike come from different tables or passages of the source.

How the values were obtained:
[1] = biological target: T1, PqsR (Pseudomonas aeruginosa, UniProt Q9I4X0); conditions: cited from earlier work
T1 sequence (Q9I4X0 1-332): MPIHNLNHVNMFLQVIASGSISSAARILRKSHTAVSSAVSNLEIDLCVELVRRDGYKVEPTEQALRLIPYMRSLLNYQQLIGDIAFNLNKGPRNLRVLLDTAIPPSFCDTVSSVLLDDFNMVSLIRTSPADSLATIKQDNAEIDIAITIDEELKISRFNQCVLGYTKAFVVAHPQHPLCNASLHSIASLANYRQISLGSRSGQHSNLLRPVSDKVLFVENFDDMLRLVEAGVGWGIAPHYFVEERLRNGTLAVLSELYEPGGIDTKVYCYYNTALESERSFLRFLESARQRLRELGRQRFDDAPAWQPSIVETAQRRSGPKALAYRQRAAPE

[2] = system: phzA1 promoter; assay type: cell-based; conditions: 12.5 µM; data not shown
[3] = biological target: T1, PqsR; assay: cell-based; set-up: assayed for their agonist and antagonist activities in a whole P. aeruginosa bacterial cell assay; endogenous in cells; host or cells: P. aeruginosa PAO1 wild type, ΔpqsA or ΔpqsAH strains carrying a chromosomal (mini)CTX::pqsA'-lux fusion
[4] = system: lecA; assay type: cell-based; conditions: P. aeruginosa PAO1, compared with control
[5] = system: P. aeruginosa PAO1; assay: Pyocyanin production, quantified spectrophotometrically; assay type: cell-based, Pseudomonas aeruginosa; conditions: PAO1 cultures, 50 or 100 µM
Method: (§1) The impact of 3-NH2-7Cl-C9-QZN on (a) AQ production was assayed by LC MS/MS after extracting bacterial cultures with acidified ethyl acetate; (b) pyocyanin was quantified spectrophotometrically and (c) biofilm development was examined using a Bioflux 200 microfluidics device (Fluxion Biosciences; in conjunction with GFP-labelled P. aeruginosa strains, [53]). All assays were performed in triplicate at least twice.

[6] = system: P. aeruginosa; assay type: cell-based; conditions: GFP-tagged wild type, flow conditions
[7] = biological target: T1, PqsR; assay type: cell-based; set-up: assayed for their agonist and antagonist activities in a whole P. aeruginosa bacterial cell assay; endogenous in cells; host or cells: P. aeruginosa PAO1 wild type, ΔpqsA or ΔpqsAH strains carrying a chromosomal (mini)CTX::pqsA'-lux fusion; conditions: 100 µM QZN; ΔpqsA mutant
[8] = system: P. aeruginosa PAO1; assay: AQ production by LC-MS/MS of culture extracts; assay type: cell-based, Pseudomonas aeruginosa; conditions: PAO1 grown with 200 µM; semi-quantitative
Method: as §1

[9] = biological target: T1, PqsR; assay: cell-based; set-up: assayed for their agonist and antagonist activities in a whole P. aeruginosa bacterial cell assay; endogenous in cells; host or cells: P. aeruginosa PAO1 wild type, ΔpqsA or ΔpqsAH strains carrying a chromosomal (mini)CTX::pqsA'-lux fusion; remark: listed apart in the source
[10] = biological target: PqsR Leu207Glu (Pseudomonas aeruginosa, UniProt Q9I4X0, L207E); assay: Response of PqsR-6His ligand binding site variants to PQS and HHQ, pqsA'-lux in ΔpqsA ΔpqsH ΔpqsR strain; assay type: cell-based; conditions: Leu207Glu mutation; co-inducer 40 µM
[11] = biological target: T1, PqsR; set-up: assayed for their agonist and antagonist activities in a whole P. aeruginosa bacterial cell assay; endogenous in cells; host or cells: P. aeruginosa PAO1 wild type, ΔpqsA or ΔpqsAH strains carrying a chromosomal (mini)CTX::pqsA'-lux fusion; method as in PMID 17922753; conditions: whole P. aeruginosa cell assays; cited from earlier work
[12] = biological target: T1, PqsR; assay: cell-based; set-up: assayed for their agonist and antagonist activities in a whole P. aeruginosa bacterial cell assay; endogenous in cells; host or cells: P. aeruginosa PAO1 wild type, ΔpqsA or ΔpqsAH strains carrying a chromosomal (mini)CTX::pqsA'-lux fusion; conditions: Figure 2 (AQs); P. aeruginosa ΔpqsA CTX::pqsA'-lux strain; read-out: Agonist EC50 ±SD
[13] = biological target: T1, PqsR; set-up: assayed for their agonist and antagonist activities in a whole P. aeruginosa bacterial cell assay; endogenous in cells; host or cells: P. aeruginosa PAO1 wild type, ΔpqsA or ΔpqsAH strains carrying a chromosomal (mini)CTX::pqsA'-lux fusion; method as in Xiao et al. [21]; conditions: different P. aeruginosa strain and reporter assay; ref Xiao et al. [21]; cited from earlier work

CCCCCCCc1cc(=O)c2ccc(C(F)(F)F)cc2[nH]1 [7-CF3-substituted HHQ]
Agonist activity relative to HHQ [1]: about 50%

CCCCCCCCCc1nc2cc(Cl)ccc2c(=O)n1N [compound 23]
Reduction of phzA1 promoter activity [2]: ~50% | IC50 [3]: 5 ± 1.6 µM | Expression of lecA [4]: reduced | Pyocyanin levels [5]: substantially reduced | Biofilm development [6]: reduced surface area coverage | PQS concentration that competitively overcomes QZN-mediated PqsR inhibition [7]: above 25 µM | Production of HHQ, NHQ, their N-oxides and PQS [8]: reduced to very low levels

CCCCCCCc1[nH]c2ccccc2c(=O)c1O [compound 1, 2-heptyl-3-hydroxy-4(1H)-quinolone]
EC50 ([9]; Figure 2 (AQs), P. aeruginosa ΔpqsAH CTX::pqsA'-lux strain, read-out: Agonist EC50 ±SD): 3.8 ± 1.6 µM | Induction of the pqsA promoter compared with HHQ ([9]; P. aeruginosa ΔpqsA ΔpqsH double mutant): ~3 fold | Response, % of pqsA promoter activity with respect to strain expressing PqsR-6His [10]: 39% | EC50 for PqsR-dependent activation of pqsA [11]: low micromolar range | EC50 [12]: 1.9 µM | Induction compared with HHQ [13]: 100 fold
